Measurements reported in ChEMBL document CHEMBL1201862, “PubChem BioAssay data set” (2004).
The source made the active and inactive calls.

How the values were obtained:
[1] = NIH-3T3 fibroblast cytotoxicity, dose response, cytotoxicity control, cell-based, fluorescence, Alamar Blue, secondary assay (AID 2327); type: functional;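 also: NIH-3T3 mouse fibroblasts cultured with fluconazole at 8 µg/mL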
[2] = target: T1, Leucine aminopeptidase (Plasmodium falciparum 3D7, UniProt Q8IL11); test: P. falciparum M17LAP inhibitors, primary screen, biochemical, fluorogenic H-Leu-NHMec substrate, 1536-well (AID 1619); type: functional
T1 sequence (Q8IL11 whole entry): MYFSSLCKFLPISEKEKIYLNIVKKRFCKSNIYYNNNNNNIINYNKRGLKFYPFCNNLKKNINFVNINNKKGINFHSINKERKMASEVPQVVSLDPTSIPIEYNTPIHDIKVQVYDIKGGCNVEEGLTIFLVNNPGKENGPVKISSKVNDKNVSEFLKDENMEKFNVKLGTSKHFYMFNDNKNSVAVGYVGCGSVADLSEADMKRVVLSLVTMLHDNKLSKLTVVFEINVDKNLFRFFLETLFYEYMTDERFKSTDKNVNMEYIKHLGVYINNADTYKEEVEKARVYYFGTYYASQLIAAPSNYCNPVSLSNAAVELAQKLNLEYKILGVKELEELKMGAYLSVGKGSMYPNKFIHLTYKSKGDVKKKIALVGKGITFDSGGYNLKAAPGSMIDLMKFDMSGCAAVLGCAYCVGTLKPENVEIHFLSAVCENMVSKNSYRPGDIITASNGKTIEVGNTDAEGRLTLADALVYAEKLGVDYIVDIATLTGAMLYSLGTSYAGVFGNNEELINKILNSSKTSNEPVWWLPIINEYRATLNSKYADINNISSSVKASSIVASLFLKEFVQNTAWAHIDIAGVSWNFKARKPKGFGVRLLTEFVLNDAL

[3] = fluconazole-exposed Candida albicans growth modulators – fluorescence, retest, confirmation (AID 2467); type: functional, cell-based
[4] = target: Large T antigen (Simian virus 40, UniProt P03070); type: functional, Betapolyomavirus macacae;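 also: Confirmatory-stage PubChem screen for compounds that inhibit SV40 T antigen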
Large T antigen, sequence (P03070 whole entry): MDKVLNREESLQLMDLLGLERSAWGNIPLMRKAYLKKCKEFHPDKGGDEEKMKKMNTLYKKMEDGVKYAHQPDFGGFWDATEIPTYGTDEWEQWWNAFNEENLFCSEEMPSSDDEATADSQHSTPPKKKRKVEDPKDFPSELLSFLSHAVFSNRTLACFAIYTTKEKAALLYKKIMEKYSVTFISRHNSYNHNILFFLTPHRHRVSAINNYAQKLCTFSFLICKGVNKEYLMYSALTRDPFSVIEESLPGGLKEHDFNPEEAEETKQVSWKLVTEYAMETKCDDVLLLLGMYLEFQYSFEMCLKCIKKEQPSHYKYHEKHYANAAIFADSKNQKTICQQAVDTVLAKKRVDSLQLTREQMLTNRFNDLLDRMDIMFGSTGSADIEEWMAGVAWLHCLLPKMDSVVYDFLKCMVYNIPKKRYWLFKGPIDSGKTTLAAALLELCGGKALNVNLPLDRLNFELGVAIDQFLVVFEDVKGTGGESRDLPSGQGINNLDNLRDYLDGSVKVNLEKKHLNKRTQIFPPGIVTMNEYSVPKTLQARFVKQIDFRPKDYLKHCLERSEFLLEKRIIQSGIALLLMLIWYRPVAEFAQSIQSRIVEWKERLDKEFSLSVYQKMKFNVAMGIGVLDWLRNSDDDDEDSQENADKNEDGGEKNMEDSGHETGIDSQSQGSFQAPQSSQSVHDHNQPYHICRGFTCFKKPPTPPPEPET

[5] = target: Induced myeloid leukemia cell differentiation protein Mcl-1 (Homo sapiens, UniProt Q07820); test: blockers of MCL1 binding to BIM peptide – biochemical, fluorescence polarization, BIM-BH3 peptide, 1536-well, dose response (AID 2217)
Induced myeloid leukemia cell differentiation protein Mcl-1, sequence (Q07820 whole entry): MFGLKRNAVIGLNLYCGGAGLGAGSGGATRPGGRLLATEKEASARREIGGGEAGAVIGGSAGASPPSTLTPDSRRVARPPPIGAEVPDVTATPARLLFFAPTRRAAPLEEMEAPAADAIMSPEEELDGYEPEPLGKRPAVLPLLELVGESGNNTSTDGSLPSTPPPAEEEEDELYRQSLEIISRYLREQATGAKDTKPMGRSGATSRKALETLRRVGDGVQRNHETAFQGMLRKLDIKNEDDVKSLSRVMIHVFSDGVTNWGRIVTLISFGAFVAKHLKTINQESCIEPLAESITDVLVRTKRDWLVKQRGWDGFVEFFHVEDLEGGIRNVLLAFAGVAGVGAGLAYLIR

[6] = target: T2, Estrogen receptor beta (Homo sapiens, UniProt Q92731);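 also: recombinant ER-beta bound to coactivator SRC1 peptide in presence of estradiol agonist; inhibitors block coactivator peptide binding and lower the FRET signal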
T2 sequence (Q92731 whole entry): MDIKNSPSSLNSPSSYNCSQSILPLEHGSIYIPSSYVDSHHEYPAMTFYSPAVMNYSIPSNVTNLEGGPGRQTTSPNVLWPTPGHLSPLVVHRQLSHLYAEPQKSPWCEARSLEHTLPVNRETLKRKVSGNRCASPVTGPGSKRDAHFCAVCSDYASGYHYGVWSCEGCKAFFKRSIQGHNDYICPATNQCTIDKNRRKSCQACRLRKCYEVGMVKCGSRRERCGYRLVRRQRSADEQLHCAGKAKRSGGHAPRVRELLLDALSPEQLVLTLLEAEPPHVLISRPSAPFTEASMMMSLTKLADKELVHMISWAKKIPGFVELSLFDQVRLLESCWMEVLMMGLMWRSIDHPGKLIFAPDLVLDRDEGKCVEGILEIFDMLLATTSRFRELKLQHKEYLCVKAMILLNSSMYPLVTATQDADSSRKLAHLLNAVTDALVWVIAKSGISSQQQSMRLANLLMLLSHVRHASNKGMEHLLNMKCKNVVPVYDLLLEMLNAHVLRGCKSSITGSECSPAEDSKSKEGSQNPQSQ

[7] = target: T2, Estrogen receptor beta; test: blockers of SRC-3 recruitment to ERβ – biochemical, ELISA, streptavidin-HRP readout, orthogonal assay, confirmation (AID 1060)
[8] = target: Bcl-2-like protein 1 (Homo sapiens, UniProt Q07817); test: blockers of BCLXL peptide binding – biochemical, fluorescence polarization, 1536-well, selectivity assay for MCL1 inhibitor project, dose response (AID 2218)
Bcl-2-like protein 1, sequence (Q07817 whole entry): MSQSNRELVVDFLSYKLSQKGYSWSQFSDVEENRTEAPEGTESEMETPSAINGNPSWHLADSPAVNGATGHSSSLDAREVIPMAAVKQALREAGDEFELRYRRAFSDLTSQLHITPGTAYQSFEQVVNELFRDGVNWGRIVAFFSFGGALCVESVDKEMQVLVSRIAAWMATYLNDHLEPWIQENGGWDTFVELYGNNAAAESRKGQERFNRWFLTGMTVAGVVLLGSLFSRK

[9] = target: Intestinal-type alkaline phosphatase (Mus musculus, UniProt P24822); test: PubChem AID 488785; type: functional
Intestinal-type alkaline phosphatase (Mus musculus, UniProt P24822), sequence (P24822 whole entry): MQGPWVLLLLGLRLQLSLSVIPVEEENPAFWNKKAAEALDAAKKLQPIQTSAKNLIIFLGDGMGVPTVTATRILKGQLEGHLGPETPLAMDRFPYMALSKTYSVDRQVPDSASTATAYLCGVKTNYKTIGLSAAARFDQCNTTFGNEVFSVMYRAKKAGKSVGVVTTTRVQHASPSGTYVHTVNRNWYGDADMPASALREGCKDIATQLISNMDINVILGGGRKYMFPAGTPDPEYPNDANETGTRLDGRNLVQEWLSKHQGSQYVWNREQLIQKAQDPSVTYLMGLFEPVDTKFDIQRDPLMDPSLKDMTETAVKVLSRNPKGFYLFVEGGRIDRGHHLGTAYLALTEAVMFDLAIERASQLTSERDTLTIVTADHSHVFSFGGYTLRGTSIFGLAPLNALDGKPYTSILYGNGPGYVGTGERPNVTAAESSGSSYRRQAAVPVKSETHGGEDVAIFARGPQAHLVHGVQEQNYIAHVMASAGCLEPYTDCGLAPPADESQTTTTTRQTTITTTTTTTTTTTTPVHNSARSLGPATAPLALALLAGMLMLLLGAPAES

[10] = target: T3, Alkaline phosphatase, tissue-nonspecific isozyme (Homo sapiens, UniProt P05186); test: TNAP enzyme inhibition by screening hits, dose response, selectivity assay for mouse IAP inhibitor project, biochemical, human TNAP, uHTS hits (AID 488906); type: functional
T3 sequence (P05186 whole entry): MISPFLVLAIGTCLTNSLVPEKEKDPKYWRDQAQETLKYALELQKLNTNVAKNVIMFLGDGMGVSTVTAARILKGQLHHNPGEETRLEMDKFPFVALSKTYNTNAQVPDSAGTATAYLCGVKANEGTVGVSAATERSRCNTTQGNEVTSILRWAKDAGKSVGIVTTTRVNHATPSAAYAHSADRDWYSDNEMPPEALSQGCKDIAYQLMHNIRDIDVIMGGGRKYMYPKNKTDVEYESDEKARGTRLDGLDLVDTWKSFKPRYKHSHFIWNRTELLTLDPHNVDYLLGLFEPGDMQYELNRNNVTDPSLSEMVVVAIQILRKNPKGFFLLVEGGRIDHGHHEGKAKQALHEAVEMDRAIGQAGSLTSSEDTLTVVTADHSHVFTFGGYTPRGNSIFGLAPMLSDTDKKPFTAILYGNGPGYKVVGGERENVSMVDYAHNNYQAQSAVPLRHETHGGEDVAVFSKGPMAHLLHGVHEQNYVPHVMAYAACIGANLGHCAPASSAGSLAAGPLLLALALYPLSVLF

[11] = target: Intestinal-type alkaline phosphatase (Homo sapiens, UniProt P09923); test: inhibition of human intestinal alkaline phosphatase – biochemical, dose response (AID 488876); type: functional
Intestinal-type alkaline phosphatase (Homo sapiens, UniProt P09923), sequence (P09923 whole entry): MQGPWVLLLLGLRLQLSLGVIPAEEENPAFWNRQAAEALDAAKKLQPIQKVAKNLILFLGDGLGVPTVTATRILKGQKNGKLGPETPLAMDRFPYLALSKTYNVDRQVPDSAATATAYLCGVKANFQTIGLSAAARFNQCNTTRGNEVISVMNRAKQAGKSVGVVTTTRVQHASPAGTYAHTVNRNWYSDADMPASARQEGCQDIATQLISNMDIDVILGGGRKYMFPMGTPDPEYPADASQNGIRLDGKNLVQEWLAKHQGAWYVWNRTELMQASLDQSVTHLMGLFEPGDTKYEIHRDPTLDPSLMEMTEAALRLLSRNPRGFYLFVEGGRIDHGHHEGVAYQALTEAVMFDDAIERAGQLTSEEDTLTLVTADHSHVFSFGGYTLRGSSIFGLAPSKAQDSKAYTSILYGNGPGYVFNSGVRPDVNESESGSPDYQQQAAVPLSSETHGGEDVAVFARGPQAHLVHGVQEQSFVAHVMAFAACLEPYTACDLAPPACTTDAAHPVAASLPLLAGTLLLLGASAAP

[12] = target: Albumin (Bos taurus, UniProt P02769); test: Counterscreen for inhibitors of T-cell receptor (TCR)-CD3 interaction: Fluorescence-based biochemical high throughput dose response assay to identify inhibitors of T-cell receptor (TCR)-CD3 interaction using a TAMRA-labeled BSA probe.; type: functional
Albumin, sequence (P02769 whole entry): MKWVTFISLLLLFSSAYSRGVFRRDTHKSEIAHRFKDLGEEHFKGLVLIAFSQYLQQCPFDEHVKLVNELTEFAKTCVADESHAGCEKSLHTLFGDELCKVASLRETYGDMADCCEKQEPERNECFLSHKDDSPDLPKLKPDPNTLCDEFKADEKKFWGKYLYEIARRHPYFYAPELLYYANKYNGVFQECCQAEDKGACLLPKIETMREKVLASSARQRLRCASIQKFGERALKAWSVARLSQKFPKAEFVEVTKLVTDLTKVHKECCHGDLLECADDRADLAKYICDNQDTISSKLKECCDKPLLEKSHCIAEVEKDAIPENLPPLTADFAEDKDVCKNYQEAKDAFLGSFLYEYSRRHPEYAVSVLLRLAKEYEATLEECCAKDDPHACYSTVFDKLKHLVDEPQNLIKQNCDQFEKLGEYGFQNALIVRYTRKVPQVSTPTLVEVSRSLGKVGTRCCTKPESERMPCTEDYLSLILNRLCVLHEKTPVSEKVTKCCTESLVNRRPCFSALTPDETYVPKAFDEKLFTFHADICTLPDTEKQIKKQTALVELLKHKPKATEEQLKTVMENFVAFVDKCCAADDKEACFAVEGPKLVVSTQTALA

[13] = target: T4, Histone-lysine N-methyltransferase NSD2 (Homo sapiens, UniProt O96028); type: biochemical
T4 sequence (O96028 whole entry): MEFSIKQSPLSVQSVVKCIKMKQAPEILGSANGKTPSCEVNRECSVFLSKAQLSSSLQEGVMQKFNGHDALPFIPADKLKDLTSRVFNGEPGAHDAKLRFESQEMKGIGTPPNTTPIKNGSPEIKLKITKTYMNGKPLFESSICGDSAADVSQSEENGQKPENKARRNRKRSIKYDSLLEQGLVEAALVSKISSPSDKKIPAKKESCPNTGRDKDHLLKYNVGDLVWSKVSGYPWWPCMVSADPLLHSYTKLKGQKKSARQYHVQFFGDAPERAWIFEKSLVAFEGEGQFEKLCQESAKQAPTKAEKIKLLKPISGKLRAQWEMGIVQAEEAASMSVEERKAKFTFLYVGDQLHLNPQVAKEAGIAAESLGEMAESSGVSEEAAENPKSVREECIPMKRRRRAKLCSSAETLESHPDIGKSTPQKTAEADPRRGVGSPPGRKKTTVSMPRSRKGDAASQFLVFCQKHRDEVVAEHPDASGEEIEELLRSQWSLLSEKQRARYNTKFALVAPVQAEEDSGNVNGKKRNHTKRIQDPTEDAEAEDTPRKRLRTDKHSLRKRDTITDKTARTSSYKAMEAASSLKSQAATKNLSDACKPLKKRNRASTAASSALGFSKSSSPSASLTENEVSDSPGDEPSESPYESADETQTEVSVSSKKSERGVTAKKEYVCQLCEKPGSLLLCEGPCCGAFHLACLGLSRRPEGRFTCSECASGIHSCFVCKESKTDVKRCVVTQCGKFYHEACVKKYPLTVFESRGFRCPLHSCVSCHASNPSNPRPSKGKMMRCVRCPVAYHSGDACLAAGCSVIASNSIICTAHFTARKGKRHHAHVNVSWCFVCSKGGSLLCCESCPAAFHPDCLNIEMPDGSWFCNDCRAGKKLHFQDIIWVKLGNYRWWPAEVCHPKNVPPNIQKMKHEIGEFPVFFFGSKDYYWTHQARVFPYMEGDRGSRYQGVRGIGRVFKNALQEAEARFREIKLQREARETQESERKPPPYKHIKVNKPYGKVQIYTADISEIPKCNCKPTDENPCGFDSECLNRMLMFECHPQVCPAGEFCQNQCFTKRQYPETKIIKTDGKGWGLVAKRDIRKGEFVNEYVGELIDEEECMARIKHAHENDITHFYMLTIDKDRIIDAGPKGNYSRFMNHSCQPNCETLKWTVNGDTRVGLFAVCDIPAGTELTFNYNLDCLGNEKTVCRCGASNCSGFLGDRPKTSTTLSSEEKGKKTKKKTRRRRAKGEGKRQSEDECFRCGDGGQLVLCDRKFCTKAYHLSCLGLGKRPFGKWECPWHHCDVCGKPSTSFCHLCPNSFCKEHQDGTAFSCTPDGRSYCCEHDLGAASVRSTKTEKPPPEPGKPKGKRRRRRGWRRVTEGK

[14] = target: T5, Aryl hydrocarbon receptor (Homo sapiens, UniProt P35869); test: Luminescence-based cell-based high throughput dose response assay for activators of the Aryl Hydrocarbon Receptor (AHR). [Related pubchem assays: 2796 (Primary screen (AHR activators in singlicate)), 2845 (Confirmation screen (AHR activators in triplicate)), 434939 (Counterscreen (PXR activators in triplicate)), 2804 (Summary (AHR activators))]; type: ADME
T5 sequence (P35869 whole entry): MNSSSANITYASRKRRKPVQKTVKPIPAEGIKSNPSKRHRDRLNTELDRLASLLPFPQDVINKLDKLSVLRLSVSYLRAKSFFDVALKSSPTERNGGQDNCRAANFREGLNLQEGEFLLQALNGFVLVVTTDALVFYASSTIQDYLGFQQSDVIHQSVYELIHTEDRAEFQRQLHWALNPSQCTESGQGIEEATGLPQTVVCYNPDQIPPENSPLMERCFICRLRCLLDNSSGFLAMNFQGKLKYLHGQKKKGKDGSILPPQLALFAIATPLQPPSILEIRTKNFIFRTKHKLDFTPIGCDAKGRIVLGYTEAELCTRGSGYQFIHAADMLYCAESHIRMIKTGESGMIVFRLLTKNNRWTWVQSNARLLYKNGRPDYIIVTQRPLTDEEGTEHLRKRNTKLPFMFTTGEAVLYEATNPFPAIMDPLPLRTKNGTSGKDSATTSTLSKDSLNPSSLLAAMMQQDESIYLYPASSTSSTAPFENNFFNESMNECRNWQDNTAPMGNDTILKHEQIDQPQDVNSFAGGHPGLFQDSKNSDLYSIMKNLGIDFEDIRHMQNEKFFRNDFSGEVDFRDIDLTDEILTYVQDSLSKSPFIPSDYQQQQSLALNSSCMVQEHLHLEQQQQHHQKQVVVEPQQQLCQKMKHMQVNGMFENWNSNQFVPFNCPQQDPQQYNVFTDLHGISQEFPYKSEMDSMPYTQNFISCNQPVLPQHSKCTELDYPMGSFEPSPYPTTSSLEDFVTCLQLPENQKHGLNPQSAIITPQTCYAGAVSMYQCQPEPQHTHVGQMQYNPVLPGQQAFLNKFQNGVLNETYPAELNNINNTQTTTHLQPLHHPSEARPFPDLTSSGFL

[15] = target: Galanin receptor type 2 (Homo sapiens, UniProt O43603); test: Dose Response cell-based high-throughput screening assay to identify antagonists of galanin receptor 2 (GALR2). [Related pubchem assays: 828, 866 ]; type: functional
Galanin receptor type 2, sequence (O43603 whole entry): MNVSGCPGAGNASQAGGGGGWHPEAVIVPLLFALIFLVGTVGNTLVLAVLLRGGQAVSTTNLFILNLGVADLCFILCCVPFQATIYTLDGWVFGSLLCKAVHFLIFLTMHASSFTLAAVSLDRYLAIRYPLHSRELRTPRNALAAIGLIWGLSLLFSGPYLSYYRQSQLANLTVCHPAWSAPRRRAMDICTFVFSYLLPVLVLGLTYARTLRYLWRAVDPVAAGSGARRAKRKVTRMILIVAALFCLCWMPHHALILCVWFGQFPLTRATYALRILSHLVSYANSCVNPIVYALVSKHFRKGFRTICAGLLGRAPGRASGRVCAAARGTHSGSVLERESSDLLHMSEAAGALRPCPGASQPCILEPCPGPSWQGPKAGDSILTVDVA

[16] = test system: HEK293; test: cells; settings: Homo sapiens
[17] = test system: HEK293; test: cells; settings: Homo sapiens; remark: listed apart in the source

Q: With `CCn1c(SCC(=O)c2ccc(O)c(O)c2)nnc1-c1ccccc1OC` as the molecule, how does the EC50 [1] read?
A: > 160 µM (inactive)

Q: And the IC50 [2]?
A: 24.4 µM (active)

Q: And the EC50 [3]?
A: > 38 µM (not active)

Q: What about the IC50 [4] of the same molecule?
A: 7.83 µM (active)

Q: And the IC50 [5]?
A: 37.4 µM (not active)

Q: What about the IC50 [6] of the same molecule?
A: 5.06 µM (active)

Q: And the IC50 [7]?
A: 93.8 µM (not active)

Q: What about the IC50 [8] of the same molecule?
A: > 109 µM (not active)

Q: And the IC50 [9]?
A: 1.43 µM (active)

Q: What about the IC50 [10] of the same molecule?
A: > 100 µM (inactive)

Q: What about the IC50 [11] of the same molecule?
A: > 100 µM (inactive)

Q: What about the IC50 [12] of the same molecule?
A: > 94.1 µM (inactive)

Q: What about the AC50 [13] of the same molecule?
A: 9.05 µM (active)

Q: For `COc1ccccc1NC(=O)c1ccc2c(c1)nnn2C`, which EC50 [14] is on record?
A: 0.195 µM (active)

Q: What does the source list for `CN(C(S)=NC1CCCCC1)C1(c2ccccc2Cl)CCCCC1=O` (configuration not stated)?
A: IC50 [15]: > 42 µM (not active); EC50 [16]: > 59.6 µM (inactive); EC50 [17]: > 59.6 µM (inactive)
